System: FLT3 mutant positive AML
Assay: Clinical response to midostaurin plus chemotherapy, Princess Margaret cohort of 54 AML patients
Type: in vivo, human
[1] = midostaurin plus chemotherapy, 54 FLT3 mutant-positive AML patients

Question: With `CO[C@@H]1[C@H](N(C)C(=O)c2ccccc2)C[C@H]2O[C@]1(C)n1c3ccccc3c3c4c(c5c6ccccc6n2c5c31)C(=O)NC4` [midostaurin, N-[(9S,I0R,I IR,I3R)-2,3,I0,I I,I2,I3-hexahydro-I0-methoxy-9-methyl-I-oxo-9,I3-epoxy-IH, 9H-diindolo[1,2,3-gh: 3′,2′,I′-Im]pyrrolo[3,4-j][I, 7]benzodiazonin-I I-yl]-N-methylbenzamide] as the compound, how does the “Responses to midostaurin, average” value [1] read?
Answer: The value was 84 weeks.

Question: And the “Responses to midostaurin, range” value [1]?
Answer: Its value is 0-513 weeks.

Question: What about the “patients refractory or relapsed at the time of carrying out the analysis” value (of 54 AML patients treated with midostaurin plus chemotherapy) of the same compound?
Answer: The value was 25 patients.

Reference: patent US20240261259A1 (priority 2021, published 2024)
